Data set [1] in a line: Bidirectional transport across Caco-2 cell transwell model. The format is in vitro ADME. The following applies: human, Caco-2, oridonin 2 µM; for Papp B→A at 2 µM: basolateral to apical. As for the experimental part: (§1) The Caco-2 cell line was obtained from the American Type Culture Collection (Manassas, VA, USA), and it was performed according to the previous study (Liu et al. [2018]). The Caco-2 cells were cultured in DMEM high glucose medium containing 15% FBS, 1% NEAA and 100 U/mL penicillin and 100 µg/mL streptomycin. The cells were cultured at 37 °C with 5% CO2. For transport studies, the cells at passage 40 were seeded on transwell polycarbonate insert filters (1.12 cm^2 surface, 0.4 µm pore size, 12 mm diameter; Corning Costar Corporation, MA, USA) in 12-well plates at a density of 1 × 10^5 cells/cm^2. Cells were allowed to grow for 21 days. For the first seven days, the medium was replaced every two days, and then daily. The transepithelial electrical resistance (TEER) of the monolayer cells was measured using Millicell ERS-2 (Millipore Corporation, Billerica, MA, USA), and TEER exceeding 400 Ω·cm^2 was used for the flux experiment. The integrity of the Caco-2 monolayers was confirmed by the paracellular flux of Lucifer yellow, which was less than 1% per hour. The alkaline phosphatase activity was validated using an Alkaline Phosphatase Assay Kit. The qualified monolayers were used for transport studies. Before the transport experiments, the cell monolayers were rinsed twice using warm (37 °C) HBSS, then the cells were incubated at 37 °C for 20 min. After preincubation, the cell monolayers were incubated with oridonin in fresh incubation medium added on either the apical or basolateral side for the indicated times at 37 °C. […] The permeability of oridonin (2 µM) in all of the above condition s for both directions, i.e., from the apical (AP) side to the basolateral (BL) side and from the BL side to the AP side, was measured after incubation for 30, 60, 90 and 120 min at 37 °C. In addition, the efflux activity of P-gp was validated using a typical P-gp substrate digoxin (25 µM). The apparent permeability coefficient (Papp) was calculated using the equation of Artursson and Karlsson: Papp=(ΔQ/Δt)×[1/(A×C0)] where Papp is the apparent permeability coefficient (cm/s), ΔQ/Δt (µmol/s) is the rate at which the compound appears in the receiver chamber, C0 (µmol/L) is the initial concentration of the compound in the donor chamber and A (cm^2) represents the surface area of the cell monolayer. Data were collected from three separate experiments, and each was performed in triplicate. In addition, the efflux activity of P-gp was validated using a typical P-gp substrate digoxin (25 µM).
Background: Passage across Caco-2 layers is used to estimate intestinal permeability.

Details of data set [2]: method as in Xu et al. [2006]. The conditions noted are these: oral administration in rats; ref Xu et al. [2006]; cited from earlier work.
Data set [3] can be described thus: Metabolic stability in rat liver microsomes. The data set is classed as in vitro ADME. The following applies: for microsomal CLint at 1 µM: read-out: intrinsic clearance rate; for half-life at 1 µM: read-out: metabolic half-life (t1/2). The method, then:
Rat liver microsomes were used to investigate the effects of verapamil on the metabolism clearance of oridonin, and the assay conditions and reaction mixtures were similar to those reported previously (Wang et al. [2017]; Yan et al. [2017]). In brief, 30 µL rat liver microsome (20 mg/mL), 12 µL oridonin solution (100 µM) and 1113 µL PBS buffer (0.1 M, pH 7.4) were added to the centrifuge tubes on ice. There was a 5 min preincubation step at 37 °C before initiating the reaction by adding NADPH-generating system (45 µL) into the microsomal suspension. The effects of verapamil or ketoconazole (a positive CYP3A4 inhibitor) on the metabolic stability of oridonin were investigated by adding 10 µM of verapamil or ketoconazole (12 µL, final concentration of 0.1 µM) to rat liver microsomes and preincubating them for 30 min at 37 °C, followed by the addition of NADPH-generating system. Aliquots of 100 µL were collected from the reaction volumes at 0.083, 0.167, 0.33, 0.5, 1, 2, 4, 8, 12, 24 and 36 h after the addition of oridonin, and 200 µL ice-cold acetonitrile containing esculin was added to terminate the reaction. All the experiments were performed in triplicate. The subsequent sample preparation method was same as the method of plasma sample preparation, and the concentration of oridonin was determined by LC-MS.
The in vitro half-life (t1/2) was obtained using the equation: t1/2=0.693/k; V (µL/mg)=volume of incubation (µL)/protein in the incubation (mg); Intrinsic clearance (Clint) (µL/min/mg protein)=V × 0.693/t1/2.
On the technique in general: Microsomes from liver hold many membrane-bound enzymes, among them those of drug oxidation.

Data set [4] in a line: In vivo pharmacokinetic study of oridonin in rats with or without verapamil pre-treatment. The conditions noted are these: Sprague-Dawley, rat, plasma, po, intragastrical oridonin (40 mg/kg; n = 6, mean ± SD); for CL/F: read-out: CLz/F (oral clearance) (converted). As for the experimental part: To evaluate the effects of verapamil on the pharmacokinetics of oridonin, the rats were divided into two groups of six animals each. The pre-treatment group was pre-treated with verapamil at a dose of 10 mg/kg/day (dissolved directly in normal saline containing 0.5% methylcellulose at a concentration of 2 mg/mL) for 7 days before the administration of oridonin. […] The dose of verapamil and oridonin were based on previous reports (Xu et al. [2006]; Zhu et al. [2017]; Huang et al. [2018]; Zhou et al. [2019]). The control group was without the pre-treatment of verapamil before the oral administration of oridonin. Blood samples (250 µL) were collected into heparinized tubes via the oculi chorioideae vein at 0.083, 0.33, 0.5, 1, 2, 4, 6, 8, 10, 12, 24 and 36 h after the oral administration of oridonin. The blood samples were centrifuged at 3500 rpm for 5 min. The plasma samples that were obtained were stored at −40 °C until analysis.
To 100 µL aliquot of a plasma sample, 20 µL methanol and 180 µL internal standard methanol solution (2 ng/mL) were added and vortexed for 60 s to mix in a 1.5 mL polypropylene tube, and were centrifuged at 12,000 rpm for 10 min. The supernatant was removed into an injection vial, and a 3 µL aliquot was injected into the LC-MS/MS system for analysis.
The determination of oridonin was performed on Agilent 1290 series liquid chromatography system and an Agilent 6470 triple-quadruple mass spectrometer (Palo Alto, CA, USA). The HPLC/MS conditions and sample preparation were basically according to a validated HPLC method described before (Jin et al. [2015]; Zhang et al. [2019]). The chromatographic analysis of oridonin was performed on a Waters X-Bridge C18 column (3.0 × 100 mm, i.d.; 3.5 µm, USA) at room temperature (25 °C). The mobile phase was water (containing 0.1% formic acid) and acetonitrile (30:70, v:v) with isocratic elution at a flow rate of 0.2 mL/min, and the analysis time was 4 min.
The mass scan mode was positive MRM mode. The precursor ion and product ion are m/z 365.3→347.3 for oridonin and m/z 252.1→155.9 for IS. The collision energy for oridonin and IS were 30 and 20 eV, respectively. The MS/MS conditions were optimized as follows: fragmentor, 110 V; capillary voltage, 3.5 kV; nozzle voltage, 500 V; nebulizer gas pressure (N2), 40 psig; drying gas flow (N2), 10 L/min; gas temperature, 350 °C; sheath gas temperature, 400 °C; sheath gas flow, 11 L/min.
The pharmacokinetic parameters, including the area under the plasma concentration-time curve (AUC), maximal plasma concentration (Cmax), the time for the maximal plasma concentration (Tmax), and the mean residence time (MRT) were calculated using the DAS 3.0 pharmacokinetic software (Chinese Pharmacological Association, Anhui, China).

Data set [5] deals with P-gp. As to the kind of experiment: Bidirectional transport across Caco-2 cell transwell model. The data set is classed as in vitro ADME. The following applies: human; Caco-2, digoxin 25 µM, P-gp substrate validation, without verapamil. As for the experimental part:
as §1

Data set [6] deals with Caco-2 cell monolayers. The description is as above. The following applies: Caco-2, digoxin 25 µM, verapamil present. The data set is classed as in vitro ADME. As for the experimental part: as §1
[7] abbreviates: with verapamil (concentration not stated), verapamil present.
[8] abbreviates: pre-treatment of verapamil (10 mg/kg/day for 7 days).

Read-outs that look alike come from different tables or passages of the source.

For `C=C1C(=O)[C@]23[C@H](O)[C@H]1CC[C@H]2[C@@]12CO[C@]3(O)[C@@H](O)[C@@H]1C(C)(C)CC[C@@H]2O` [oridonin], the efflux ratio (commonly a quotient of directional permeabilities that is used to spot active efflux) at 2 µM in data set [1] (pH 7.4, without verapamil) stood at 1.67. Also, in data set [1] (setting [7]), the Papp B→A (in general, how fast a substance crosses the layer from the basolateral side) at 2 µM worked out at 2.22 ± 0.32 nm/s and the efflux ratio at 2 µM is 1.15. For the same molecule, the Papp A→B (as a rule, how fast a substance crosses the layer from the apical side) at 2 µM in data set [1] (apical to basolateral, HBSS pH 7.4, 37 °C, without verapamil) came out at 1.91 ± 0.15 nm/s. In data set [1] (HBSS pH 7.4, 37 °C, without verapamil), this molecule yielded a Papp B→A at 2 µM of 3.2 ± 0.16 nm/s. Besides, in data set [2], the “bioavailability (available after oral administration)” value is 11%. For the same molecule, in data set [3] (pH 7.4, oridonin alone), the microsomal CLint at 1 µM was 40.1 ± 2.5 µL/min/mg and the half-life at 1 µM stood at 0.577 ± 0.045 h. The half-life at 1 µM in data set [3] (pH 7.4, with verapamil 0.1 µM, in the presence of verapamil) amounted to 0.64 ± 0.055 h. For the same molecule, the microsomal CLint at 1 µM in data set [3] (pH 7.4, with verapamil 0.1 µM, verapamil present) amounted to 36.1 ± 3.7 µL/min/mg. In data set [4] (40 mg/kg, control without verapamil), the Cmax (in general, the maximum level reached in the sampled fluid or tissue) was 0.147 ± 0.0102 µg/mL. Also, in data set [4] (control without verapamil), the AUC(0-t) – broadly, the area under the concentration-time curve up to a stated or last time point – was 1.31 ± 0.29 µg·h/mL; the MRT (usually a mean duration of stay, worked out from the concentration-time curve) was found to be 9.25 ± 1.1 h; the Tmax (in general, the time at which the peak concentration occurs) turned out to be 1 ± 0.12 h; the half-life is 10.9 ± 4.38 h. The CL/F in data set [4] (control without verapamil) was 14.7 L/h/kg. In data set [4] (setting [8]), the AUC(0-t) is 2.23 ± 0.53 µg·h/mL, the Cmax worked out at 0.194 ± 0.0105 µg/mL, the MRT was 11.5 ± 1.5 h and the Tmax amounted to 1 ± 0.18 h. Further, in data set [4] (setting [8]), the half-life was 13.7 ± 4.81 h and the CL/F is 8.09 L/h/kg.
For the molecule `C[C@H]1O[C@@H](O[C@H]2[C@@H](O)C[C@H](O[C@H]3[C@@H](O)C[C@H](O[C@H]4CC[C@@]5(C)[C@H](CC[C@@H]6[C@@H]5C[C@@H](O)[C@]5(C)[C@@H](C7=CC(=O)OC7)CC[C@]65O)C4)O[C@@H]3C)O[C@@H]2C)C[C@H](O)[C@@H]1O` [digoxin], the efflux ratio at 25 µM in data set [5] worked out at 10.1. Also, in data set [6], the efflux ratio entry is given as “abrogated”.

The values above are taken from publication PMC6882484, “Influence of verapamil on the pharmacokinetics of oridonin in rats” (Pharmaceutical Biology, 2019).
